In PubChem BioAssay AID2060902 (Molecular Pharmacology Branch, DTP, NCI, 2025):

Tested on: 485368-065-R3-J5-PDC spheroids with HUVEC/MSC, viability
Assay: Anticancer human tumor 485368-065-R3-J5-PDC patient-derived pancreatic carcinoma cell line growth inhibition [RAS]
Details: for IC50: curve of first compound; for viability, T/C: stronger effect = lower value; active means viability on the fitted dose curve at most 10% of control; inactive means the rest
Summary of the method: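 Multi-cell-type spheroids: tumor cells plus HUVEC endothelial cells and mesenchymal stem cells. RAS-pathway inhibitors were combined with targeted agents, each dosed in half-log steps down from clinical Cmax, or from 10 microM when Cmax was unknown.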
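Further: spheroids exposed to agents for seven days before readout.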

CC(C)NCC(C(=O)N1CCN(c2ncnc3c2C(C)CC3O)CC1)c1ccc(Cl)cc1 (centres undefined) + CCn1c(-c2cccnc2C(C)OC)c2c3cc(ccc31)N1CCOC(CC(NC(=O)C(C(C)C)N(C)C(=O)C3(F)CCN(C(=O)C#CC(C)(C)N(C)C)CC3)C(=O)N3CCCC(N3)C(=O)OCC(C)(C)C2)C1
inactive: viability, T/C (second compound 0.000949 µM, first compound 0.0316 µM) 102% | viability, T/C (second compound 0.000949 µM, first compound 0.1 µM) 99.4% | viability, T/C (second compound 0.000949 µM, first compound 0.316 µM) 95.9% | viability, T/C (second compound 0.000949 µM, first compound 1 µM) 79.9% | viability, T/C (second compound 0.000949 µM, first compound 3.16 µM) 74.6% | viability, T/C (second compound 0.000949 µM, first compound 10 µM) 55.8% | viability, T/C (second compound 0.003 µM, first compound 0.0316 µM) 88.7% | viability, T/C (second compound 0.003 µM, first compound 0.1 µM) 94% | viability, T/C (second compound 0.003 µM, first compound 0.316 µM) 93.8% | viability, T/C (second compound 0.003 µM, first compound 1 µM) 81.7% | viability, T/C (second compound 0.003 µM, first compound 3.16 µM) 81.4% | viability, T/C (second compound 0.003 µM, first compound 10 µM) 62.2% | viability, T/C (second compound 0.00949 µM, first compound 0.0316 µM) 95.7% | viability, T/C (second compound 0.00949 µM, first compound 0.1 µM) 103% | viability, T/C (second compound 0.00949 µM, first compound 0.316 µM) 97% | viability, T/C (second compound 0.00949 µM, first compound 1 µM) 87.6% | viability, T/C (second compound 0.00949 µM, first compound 3.16 µM) 76.8% | viability, T/C (second compound 0.00949 µM, first compound 10 µM) 66.1% | viability, T/C (second compound 0.03 µM, first compound 0.0316 µM) 89.1% | viability, T/C (second compound 0.03 µM, first compound 0.1 µM) 104% | viability, T/C (second compound 0.03 µM, first compound 0.316 µM) 88.4% | viability, T/C (second compound 0.03 µM, first compound 1 µM) 84.7% | viability, T/C (second compound 0.03 µM, first compound 3.16 µM) 70.2% | viability, T/C (second compound 0.03 µM, first compound 10 µM) 58.6% | viability, T/C (second compound 0.0949 µM, first compound 0.0316 µM) 99.9% | viability, T/C (second compound 0.0949 µM, first compound 0.1 µM) 104% | viability, T/C (second compound 0.0949 µM, first compound 0.316 µM) 89.5% | viability, T/C (second compound 0.0949 µM, first compound 1 µM) 80.7% | viability, T/C (second compound 0.0949 µM, first compound 3.16 µM) 69.8% | viability, T/C (second compound 0.0949 µM, first compound 10 µM) 56.2% | viability, T/C (second compound 0.3 µM, first compound 0.0316 µM) 98.7% | viability, T/C (second compound 0.3 µM, first compound 0.1 µM) 101% | viability, T/C (second compound 0.3 µM, first compound 0.316 µM) 90.7% | viability, T/C (second compound 0.3 µM, first compound 1 µM) 78.8% | viability, T/C (second compound 0.3 µM, first compound 3.16 µM) 70.3% | viability, T/C (second compound 0.3 µM, first compound 10 µM) 49.7%
> 10000 nM: IC50 (second compound 0.000949 µM) | IC50 (second compound 0.003 µM) | IC50 (second compound 0.00949 µM) | IC50 (second compound 0.03 µM) | IC50 (second compound 0.0949 µM) | IC50 (second compound 0.3 µM)

CCc1c2c(nc3ccc(O)cc13)-c1cc3c(c(=O)n1C2)COC(=O)[C@]3(O)CC + CCn1c(-c2cccnc2C(C)OC)c2c3cc(ccc31)N1CCOC(CC(NC(=O)C(C(C)C)N(C)C(=O)C3(F)CCN(C(=O)C#CC(C)(C)N(C)C)CC3)C(=O)N3CCCC(N3)C(=O)OCC(C)(C)C2)C1
2.14 nM: IC50 (second compound 0.00949 µM)
2.01 nM: IC50 (second compound 0.3 µM)
2.27 nM: IC50 (second compound 0.03 µM)
inactive: viability, T/C (second compound 0.000949 µM, first compound 0.000949 µM) 84.3% | viability, T/C (second compound 0.000949 µM, first compound 0.003 µM) 36.9% | viability, T/C (second compound 0.000949 µM, first compound 0.00949 µM) 17% | viability, T/C (second compound 0.003 µM, first compound 0.000949 µM) 84.1% | viability, T/C (second compound 0.003 µM, first compound 0.003 µM) 39.3% | viability, T/C (second compound 0.003 µM, first compound 0.00949 µM) 15.1% | viability, T/C (second compound 0.00949 µM, first compound 0.000949 µM) 76.9% | viability, T/C (second compound 0.00949 µM, first compound 0.003 µM) 39.2% | viability, T/C (second compound 0.00949 µM, first compound 0.00949 µM) 14.8% | viability, T/C (second compound 0.03 µM, first compound 0.000949 µM) 88.8% | viability, T/C (second compound 0.03 µM, first compound 0.003 µM) 37.2% | viability, T/C (second compound 0.03 µM, first compound 0.00949 µM) 15.9% | viability, T/C (second compound 0.0949 µM, first compound 0.000949 µM) 88.1% | viability, T/C (second compound 0.0949 µM, first compound 0.003 µM) 29.7% | viability, T/C (second compound 0.0949 µM, first compound 0.00949 µM) 14.8% | viability, T/C (second compound 0.3 µM, first compound 0.000949 µM) 82.5% | viability, T/C (second compound 0.3 µM, first compound 0.003 µM) 32.2% | viability, T/C (second compound 0.3 µM, first compound 0.00949 µM) 12.6%
2.28 nM: IC50 (second compound 0.003 µM)
2.05 nM: IC50 (second compound 0.0949 µM)
active: viability, T/C (second compound 0.000949 µM, first compound 0.03 µM) 7.78% | viability, T/C (second compound 0.000949 µM, first compound 0.0949 µM) 3.95% | viability, T/C (second compound 0.000949 µM, first compound 0.3 µM) 3.3% | viability, T/C (second compound 0.003 µM, first compound 0.03 µM) 6.58% | viability, T/C (second compound 0.003 µM, first compound 0.0949 µM) 5.33% | viability, T/C (second compound 0.003 µM, first compound 0.3 µM) 2.88% | viability, T/C (second compound 0.00949 µM, first compound 0.03 µM) 8.64% | viability, T/C (second compound 0.00949 µM, first compound 0.0949 µM) 4.69% | viability, T/C (second compound 0.00949 µM, first compound 0.3 µM) 3.02% | viability, T/C (second compound 0.03 µM, first compound 0.03 µM) 8.19% | viability, T/C (second compound 0.03 µM, first compound 0.0949 µM) 3.98% | viability, T/C (second compound 0.03 µM, first compound 0.3 µM) 2.16% | viability, T/C (second compound 0.0949 µM, first compound 0.03 µM) 6.96% | viability, T/C (second compound 0.0949 µM, first compound 0.0949 µM) 4.68% | viability, T/C (second compound 0.0949 µM, first compound 0.3 µM) 2.71% | viability, T/C (second compound 0.3 µM, first compound 0.03 µM) 9.2% | viability, T/C (second compound 0.3 µM, first compound 0.0949 µM) 5.3% | viability, T/C (second compound 0.3 µM, first compound 0.3 µM) 2.3%
2.21 nM: IC50 (second compound 0.000949 µM)
